For this test, the target named is Integrin alpha-4 (Homo sapiens) (UniProt P13612). Kind of test: inhibition of LDV ligand binding to VLA-4 – cell-based, LDV-FITC binding, flow cytometry, dose response (AID 702). In general terms: In flow cytometry, cells or beads pass a laser one at a time.

Inconclusive results are not listed. Activity calls are given as the source filed them. No rule for the calls is given here.

For orientation: EC50 means the midpoint of the concentration-response curve.

Chain of Integrin alpha-4 (Homo sapiens) (P13612 whole entry, looked up): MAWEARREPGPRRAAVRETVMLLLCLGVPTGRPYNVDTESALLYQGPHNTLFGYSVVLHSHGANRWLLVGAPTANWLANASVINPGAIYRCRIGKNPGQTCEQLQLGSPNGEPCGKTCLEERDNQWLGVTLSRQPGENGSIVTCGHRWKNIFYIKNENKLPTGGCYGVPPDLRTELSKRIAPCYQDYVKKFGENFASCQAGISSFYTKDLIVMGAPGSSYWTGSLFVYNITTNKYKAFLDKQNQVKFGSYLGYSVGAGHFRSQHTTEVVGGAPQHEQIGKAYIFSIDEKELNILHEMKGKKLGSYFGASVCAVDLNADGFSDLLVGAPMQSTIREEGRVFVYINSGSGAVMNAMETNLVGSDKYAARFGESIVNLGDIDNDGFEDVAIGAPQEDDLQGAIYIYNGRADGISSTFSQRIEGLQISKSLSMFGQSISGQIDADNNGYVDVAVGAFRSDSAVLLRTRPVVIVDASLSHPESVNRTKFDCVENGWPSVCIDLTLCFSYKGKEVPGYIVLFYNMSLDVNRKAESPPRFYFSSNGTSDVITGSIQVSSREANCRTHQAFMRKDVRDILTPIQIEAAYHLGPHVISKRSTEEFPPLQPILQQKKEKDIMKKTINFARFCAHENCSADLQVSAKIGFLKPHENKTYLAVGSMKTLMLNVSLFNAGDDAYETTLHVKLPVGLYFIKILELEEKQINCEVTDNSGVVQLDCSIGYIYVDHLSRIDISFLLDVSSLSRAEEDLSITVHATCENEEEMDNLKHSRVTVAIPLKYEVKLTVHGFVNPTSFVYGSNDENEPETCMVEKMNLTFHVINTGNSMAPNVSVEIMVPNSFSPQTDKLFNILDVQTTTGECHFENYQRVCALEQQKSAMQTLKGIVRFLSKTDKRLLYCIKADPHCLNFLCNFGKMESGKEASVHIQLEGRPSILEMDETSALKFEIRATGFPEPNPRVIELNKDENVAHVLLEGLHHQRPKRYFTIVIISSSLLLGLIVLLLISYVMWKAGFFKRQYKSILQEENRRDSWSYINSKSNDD

Take `CCCCC1(C)C(=O)N(c2ccccc2)N(c2ccccc2)C1=O`: the outcome was inactive.
The same measure, in the same setting: the entry for `CCCCN1C(=O)C(c2ccccc2)N(c2ccccc2)C1=O` (stereo not given) is “inactive”; for `Cn1c(=O)cc(SCC(=O)N2CCN(C3CCCCC3)CC2)c2ccccc21` it is “inactive”; for `CCCCN1C(=O)N(c2ccccc2)C(CCCC)(c2ccccc2)C1=O` (stereo not given) it is “inactive”.
The same measure, in the same setting: the entry for `CCOc1cc2[nH]c(=O)n(CCCC(=O)NCc3ccco3)c(=O)c2cc1OCC` is “inactive”.
`COc1cccc2sc(Nc3nnc(-c4ccccc4Cl)o3)nc12`: the EC50 is 5.14 µM.
For the compound `COc1cccc2sc(Nc3nc(-c4ccncc4)cs3)nc12`, the outcome was inactive.
For the compound `CCOc1cc2[nH]c(=O)n(CC3CCC(C(=O)NC(C)CC)CC3)c(=O)c2cc1OCC` (stereo not given), the 50% effective concentration (EC50) is 4.27 µM.
For `COc1cc2[nH]c(=O)n(CCC(=O)NCc3cccnc3)c(=O)c2cc1OC`, the result was inactive.
On the same count and under the same terms, the entry for `COc1cc2[nH]c(=O)n(CCCC(=O)N3CCOCC3)c(=O)c2cc1OC` is “inactive”.
With `Cc1onc(-c2ccccc2)c1C(=O)NC(CC(=O)O)c1ccc(OC(C)C)cc1` (stereo not given), the EC50 was 6.5 µM.
With `COc1ccccc1-c1nnc(Nc2nc3c(OC)cccc3s2)o1`, the outcome was inactive.
Same read-out and setting: the entry for `COc1cc(Cn2c(-c3nonc3N)nc3ccccc32)ccc1C` is “inactive”.
As to `CCOc1ccc(C(CC(=O)O)NC(=O)C23CC4CC(CC(C4)C2)C3)cc1` (stereo not given), the EC50 is 0.09 µM.
For `O=C1NC(=O)C(c2ccccc2)N1` (stereo not given), the outcome was inactive.
Regarding `CCCCC1(O)C(=O)N(c2ccccc2)N(c2ccccc2)C1=O`, the result was inactive.
With `COc1cccc2sc(Nc3nc(C)c(C(C)=O)s3)nc12`, the result was inactive.
Take `Cc1oc2cc(O)ccc2c(=O)c1Oc1ccccc1Br`: the EC50 is 31.8 µM.
Turning to `CCOc1cc2[nH]c(=O)n(CCCC(=O)N3CCCC3)c(=O)c2cc1OCC`, the outcome was inactive.
Consider `CCOc1cc2[nH]c(=O)n(CCCCC(=O)NC3CCCCCC3)c(=O)c2cc1OCC`, for which the EC50 is 5.13 µM.
`CCOc1cc2[nH]c(=O)n(CCCN3CCCC3=O)c(=O)c2cc1OCC`: the result was inactive.
`O=C1NC(=O)N(c2ccccc2)C1c1ccccc1` (stereo not given): the result was inactive.
For `N/C(=N/O)c1nc(N2CCCC2)nc(N(c2ccccc2)c2ccccc2)n1`, the EC50 is 20.2 µM.
Same read-out and setting: the figure for `C=C(C)C1Cc2c(C)nn(-c3nc(C)cc(C)n3)c2C1` (stereo not given) is 45.1 µM.
For the compound `CCOc1cc2[nH]c(=O)n(CCCCCC(=O)NCc3ccco3)c(=O)c2cc1OCC`, the result was inactive.
The same measure, in the same setting: the entry for `CCCCN1C(=O)NC(c2ccccc2)C1=O` (stereo not given) is “inactive”.
As to `CCCCC1C(=O)N(c2ccccc2)N(c2ccccc2)C1=O`, the EC50 is 1.06 µM.
Turning to `O=C(O)CCCn1c(=O)[nH]c2cc3c(cc2c1=O)OCO3`, the result was inactive.
Same read-out and setting: the entry for `CCCCC1(C(=O)O)C(=O)N(c2ccccc2)N(c2ccccc2)C1=O` is “inactive”.
`O=C(Cn1nc(-c2ccc3c(c2)OCCO3)ccc1=O)Nc1ccc(N2CCOCC2)cc1`: the half-maximal effective concentration (EC50) is 14.1 µM.
Same read-out and setting: the figure for `O=C1C(CCS(=O)c2ccccc2)C(=O)N(c2ccccc2)N1c1ccccc1` (stereo not given) is 17.3 µM.
As for `O=C(NCC12CC3CC(CC(C3)C1)C2)c1nn2c(c1Cl)NC(c1ccco1)CC2C(F)(F)F` (stereo not given), the outcome was inactive.
For `Cc1cc(C)cc(-n2ccnc(SCC(=O)Nc3ccc(Cl)cc3F)c2=O)c1`, the EC50 was 52.6 µM.
For `COc1cc2[nH]c(=O)n(CCC(=O)N3CCc4ccccc4C3)c(=O)c2cc1OC`, the outcome was inactive.
As for `CCOc1cc2[nH]c(=O)n(CCC(=O)NCCOC)c(=O)c2cc1OCC`, the outcome was inactive.
On to `CCCOc1ccc(C(CC(=O)O)NC(=O)C23CC4CC(CC(C4)C2)C3)cc1` (stereo not given), for which the EC50 is 0.08 µM.
On to `COc1cc2[nH]c3c(N4CCN(c5ccccn5)CC4)ncnc3c2cc1OC`, for which the outcome was inactive.
As to `CCOc1cc2[nH]c(=O)n(CC3CCC(C(=O)NCCC(C)C)CC3)c(=O)c2cc1OCC` (stereo not given), the EC50 is 2.34 µM.
Still for that read-out and setting: the figure for `CC(C)Oc1ccc(C(CC(=O)O)NC(=O)C2CCCCC2)cc1` (stereo not given) is 4.13 µM; for `CCCCCNC(=O)CCCCn1c(=O)[nH]c2cc(OCC)c(OCC)cc2c1=O` it is 4.6 µM.

The values are drawn from PubChem BioAssay AID702 (NMMLSC, 2007).
